Measurements reported in publication PMC10534724, “Interaction of ALK Inhibitors with Polyspecific Organic Cation Transporters and the Impact of Substrate-Dependent Inhibition on the Prediction of Drug–Drug Interactions” (Pharmaceutics, 2023).
Read-outs that look alike come from different tables or passages of the source.

What was measured:
[1] = molecular target: T1, hOCT1 (Homo sapiens, UniProt O15245); assay: Inhibition of hOCT1-mediated substrate uptake in transfected HEK293 cells; format: in vitro ADME; conditions: for In vivo DDI study recommendation, hOCT1: FDA-recommended criteria
T1 construct: expressed in transfected cells
T1 sequence (O15245 1-554): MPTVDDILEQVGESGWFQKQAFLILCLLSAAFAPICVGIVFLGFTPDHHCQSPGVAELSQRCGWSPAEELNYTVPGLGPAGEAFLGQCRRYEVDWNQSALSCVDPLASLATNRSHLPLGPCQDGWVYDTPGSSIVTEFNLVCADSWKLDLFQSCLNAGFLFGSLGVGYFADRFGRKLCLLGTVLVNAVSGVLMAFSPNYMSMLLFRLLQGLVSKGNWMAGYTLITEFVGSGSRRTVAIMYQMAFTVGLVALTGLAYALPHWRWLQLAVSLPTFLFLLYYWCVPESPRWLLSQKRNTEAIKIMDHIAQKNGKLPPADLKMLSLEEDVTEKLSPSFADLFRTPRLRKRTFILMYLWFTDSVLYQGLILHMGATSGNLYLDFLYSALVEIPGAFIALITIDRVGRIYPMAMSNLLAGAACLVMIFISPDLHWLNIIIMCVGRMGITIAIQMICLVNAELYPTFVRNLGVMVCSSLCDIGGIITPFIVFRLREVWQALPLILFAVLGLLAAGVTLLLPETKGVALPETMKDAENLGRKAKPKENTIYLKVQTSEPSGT

[2] = molecular target: T2, hOCT3 (Homo sapiens, UniProt O75751); assay: Inhibition of hOCT3-mediated substrate uptake in transfected HEK293 cells; format: in vitro ADME; conditions: for In vivo DDI study recommendation, hOCT3: FDA-recommended criteria
T2 construct: expressed in transfected cells
T2 sequence (O75751 1-556): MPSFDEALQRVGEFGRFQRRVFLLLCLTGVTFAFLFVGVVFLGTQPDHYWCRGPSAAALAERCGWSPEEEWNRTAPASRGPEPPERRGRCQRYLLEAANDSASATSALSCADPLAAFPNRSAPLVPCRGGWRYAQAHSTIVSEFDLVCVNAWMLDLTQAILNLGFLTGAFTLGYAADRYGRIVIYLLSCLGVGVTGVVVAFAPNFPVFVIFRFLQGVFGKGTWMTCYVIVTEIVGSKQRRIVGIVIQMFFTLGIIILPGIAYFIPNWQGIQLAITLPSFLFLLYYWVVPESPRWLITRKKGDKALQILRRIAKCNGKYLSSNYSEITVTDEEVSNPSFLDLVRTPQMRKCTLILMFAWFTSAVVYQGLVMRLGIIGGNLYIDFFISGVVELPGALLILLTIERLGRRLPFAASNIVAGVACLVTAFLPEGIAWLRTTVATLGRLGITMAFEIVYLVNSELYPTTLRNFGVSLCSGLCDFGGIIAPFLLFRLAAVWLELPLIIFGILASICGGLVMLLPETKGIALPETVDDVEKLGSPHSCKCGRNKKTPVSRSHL

[3] = molecular target: T3, hMATE1 (Homo sapiens, UniProt Q96FL8); assay: Inhibition of hMATE1-mediated substrate uptake in transfected HEK293 cells (pH 8.0); format: in vitro ADME; conditions: for In vivo DDI study recommendation, hMATE1: FDA-recommended criteria
T3 construct: expressed in transfected cells
T3 sequence (Q96FL8 1-570): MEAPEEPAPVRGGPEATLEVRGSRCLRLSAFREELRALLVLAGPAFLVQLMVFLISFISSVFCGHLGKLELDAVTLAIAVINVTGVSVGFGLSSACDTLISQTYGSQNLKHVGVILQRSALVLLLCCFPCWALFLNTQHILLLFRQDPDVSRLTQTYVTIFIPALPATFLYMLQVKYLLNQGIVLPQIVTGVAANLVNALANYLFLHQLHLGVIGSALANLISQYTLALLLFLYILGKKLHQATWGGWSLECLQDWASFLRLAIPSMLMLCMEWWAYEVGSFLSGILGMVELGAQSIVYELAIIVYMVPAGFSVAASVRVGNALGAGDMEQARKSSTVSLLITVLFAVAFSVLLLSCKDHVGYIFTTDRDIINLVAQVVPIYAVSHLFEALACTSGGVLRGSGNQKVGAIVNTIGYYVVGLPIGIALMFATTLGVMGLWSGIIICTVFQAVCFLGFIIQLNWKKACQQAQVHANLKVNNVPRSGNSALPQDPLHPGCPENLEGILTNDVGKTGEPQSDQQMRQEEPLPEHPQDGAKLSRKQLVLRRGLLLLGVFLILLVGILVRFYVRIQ

[4] = molecular target: T4, hMATE2-K (Homo sapiens, UniProt Q86VL8); assay: Inhibition of hMATE2-K-mediated substrate uptake in transfected HEK293 cells (pH 8.0); format: in vitro ADME; conditions: for In vivo DDI study recommendation, hMATE2-K: FDA-recommended criteria; for inhibition at 20 µM: HEK293, 20 µM inhibitor, 1 µM mIBG, 2 min, 37 °C
T4 construct: expressed in transfected cells

[5] = molecular target: T1, hOCT1; set-up: method as in PMID 32487736; conditions: substrate mIBG; HEK293; read-out: IC50, hOCT1-mediated mIBG uptake; cited from earlier work
[6] = molecular target: T5, hOCT2 (Homo sapiens, UniProt O15244); assay: Inhibition of hOCT2-mediated substrate uptake in transfected HEK293 cells; format: in vitro ADME; set-up: expressed in transfected cells; conditions: for In vivo DDI study recommendation, hOCT2: FDA-recommended criteria; for inhibition at 20 µM: HEK293, 20 µM inhibitor, 1 µM mIBG, 2 min, 37 °C
T5 sequence (O15244 1-555): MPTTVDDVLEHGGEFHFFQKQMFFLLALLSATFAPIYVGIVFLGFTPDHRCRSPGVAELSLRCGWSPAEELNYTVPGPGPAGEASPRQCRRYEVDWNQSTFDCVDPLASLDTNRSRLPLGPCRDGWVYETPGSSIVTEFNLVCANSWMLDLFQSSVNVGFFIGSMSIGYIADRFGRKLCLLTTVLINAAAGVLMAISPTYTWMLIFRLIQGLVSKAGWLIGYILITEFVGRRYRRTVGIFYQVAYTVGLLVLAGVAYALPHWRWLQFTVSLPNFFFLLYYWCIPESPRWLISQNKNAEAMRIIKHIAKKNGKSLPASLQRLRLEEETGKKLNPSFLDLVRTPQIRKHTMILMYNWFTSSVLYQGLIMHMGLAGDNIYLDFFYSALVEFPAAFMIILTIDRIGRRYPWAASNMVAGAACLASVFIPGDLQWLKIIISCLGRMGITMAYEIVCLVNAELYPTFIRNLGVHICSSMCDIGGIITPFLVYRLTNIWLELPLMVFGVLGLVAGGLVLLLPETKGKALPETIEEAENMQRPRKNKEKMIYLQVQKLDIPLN

[7] = molecular target: T5, hOCT2; conditions: cited from earlier work
[8] = HEK293, 20 µM inhibitor, 1 µM mIBG, 2 min, 37 °C

T4 sequence (Q86VL8 1-566 isoform Q86VL8-3): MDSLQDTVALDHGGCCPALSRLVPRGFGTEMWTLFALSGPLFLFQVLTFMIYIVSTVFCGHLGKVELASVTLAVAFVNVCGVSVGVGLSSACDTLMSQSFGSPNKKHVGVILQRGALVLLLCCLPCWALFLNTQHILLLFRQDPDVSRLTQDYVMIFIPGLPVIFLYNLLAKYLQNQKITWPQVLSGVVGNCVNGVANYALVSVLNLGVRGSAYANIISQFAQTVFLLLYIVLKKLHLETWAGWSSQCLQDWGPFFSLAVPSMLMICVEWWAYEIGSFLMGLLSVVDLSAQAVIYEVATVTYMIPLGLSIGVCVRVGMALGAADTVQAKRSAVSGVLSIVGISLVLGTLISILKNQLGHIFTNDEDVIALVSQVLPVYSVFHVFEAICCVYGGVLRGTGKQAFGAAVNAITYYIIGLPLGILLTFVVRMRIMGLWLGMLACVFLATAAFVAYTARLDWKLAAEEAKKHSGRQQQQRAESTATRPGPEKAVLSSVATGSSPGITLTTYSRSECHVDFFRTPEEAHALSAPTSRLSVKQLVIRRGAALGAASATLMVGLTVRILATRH

SMILES: C[C@@H](Oc1cc(-c2cnn(C3CCNCC3)c2)cnc1N)c1c(Cl)ccc(F)c1Cl [Crizotinib]
- substrate dependency, hOCT1: more potent with metformin than with MPP+ ([1]; IC50 ratio MPP+/metformin): ~21 fold
- substrate dependency, hOCT1: more potent with metformin than with mIBG ([1]; IC50 ratio mIBG/metformin): approximately 8 fold
- IC50 ([1]; substrate 8.9 µM [14C]metformin, HEK293, 2 min, 37 °C, mean ± SD, read-out: IC50, hOCT1-mediated metformin uptake): 4.98 ± 0.15 µM
- In vivo DDI study recommendation, hOCT1 ([1]; substrate MPP+): No
- In vivo DDI study recommendation, hOCT1 ([1]; substrate mIBG): No
- In vivo DDI study recommendation, hOCT1 ([1]; substrate metformin): No
- substrate dependency, hOCT3: differences in IC50 values across substrates ([2]; metformin, mIBG, MPP+): ≤ 5 fold
- In vivo DDI study recommendation, hOCT3 ([2]; substrate MPP+): No
- In vivo DDI study recommendation, hOCT3 ([2]; substrate mIBG): No
- In vivo DDI study recommendation, hOCT3 ([2]; substrate metformin): No
- In vivo DDI study recommendation, hMATE1 ([3]; substrate MPP+): No
- In vivo DDI study recommendation, hMATE1 ([3]; substrate mIBG): No
- In vivo DDI study recommendation, hMATE1 ([3]; substrate metformin): No
- substrate dependency, hMATE2-K: more potent with metformin than with MPP+ ([4]; IC50 ratio MPP+/metformin): ~12 fold
- substrate dependency, hMATE2-K: more potent with metformin than with mIBG ([4]; IC50 ratio mIBG/metformin): approximately 5 fold
- In vivo DDI study recommendation, hMATE2-K ([4]; substrate MPP+): No
- In vivo DDI study recommendation, hMATE2-K ([4]; substrate mIBG): No
- In vivo DDI study recommendation, hMATE2-K ([4]; substrate metformin): No
- IC50 [5]: 40.3 ± 5.5 µM
- substrate dependency, hOCT2: more potent with metformin than with MPP+ ([6]; IC50 ratio MPP+/metformin): ~16 fold
- substrate dependency, hOCT2: more potent with metformin than with mIBG ([6]; IC50 ratio mIBG/metformin): approximately 2 fold
- In vivo DDI study recommendation, hOCT2 ([6]; substrate MPP+): No
- In vivo DDI study recommendation, hOCT2 ([6]; substrate mIBG): No
- In vivo DDI study recommendation, hOCT2 ([6]; substrate metformin): No

SMILES: CN/C(=N/CCSCc1nc[nH]c1C)NC#N [cimetidine]
- higher potency on OCT2 with atenolol as substrate compared with metformin [7]: 10 fold

SMILES: C#Cc1cccc(Nc2ncnc3cc(OCCOC)c(OCCOC)cc23)c1 [erlotinib, Erlotinib]
- inhibition at 20 µM [4]: ≤ 50%
- inhibition at 20 µM [6]: ≤ 50%

SMILES: C[C@H]1Oc2cc(cnc2N)-c2c(nn(C)c2C#N)CN(C)C(=O)c2ccc(F)cc21 [lorlatinib]
- inhibition at 20 µM [1, 8]: ≤ 50%
- inhibition at 20 µM ([2]; HEK293, 20 µM inhibitor, 1 µM mIBG, 2 min, 37 °C, read-out: inhibition of mIBG uptake by hOCT3): ≤ 50%
- inhibition at 20 µM [3, 8]: ≤ 50%
- inhibition at 20 µM [4]: ≤ 50%
- inhibition at 20 µM [6]: ≤ 50%
